Species on record: Rattus norvegicus
Assay: DrugMatrix - Regimen: Daily Repeat
Assay type: toxicity, organism-based, Sprague-Dawley
Design: regimen Daily Repeat, gender Male, age 6-8 weeks
Details: in vivo, iv, vehicle 100 % SALINE; for ABSOLUTE BASOPHIL / ABSOLUTE EOSINOPHIL / ABSOLUTE LYMPHOCYTE / ABSOLUTE MONOCYTE / ABSOLUTE SEGMENTED NEUTROPHIL / BASOPHIL / EOSINOPHIL / ERYTHROCYTE COUNT / HEMATOCRIT / HEMOGLOBIN / LEUKOCYTE COUNT / LYMPHOCYTE / MEAN CORPUSCULAR HEMOGLOBIN / MEAN CORPUSCULAR HEMOGLOBIN CONCENTRATION / MEAN CORPUSCULAR VOLUME / MONOCYTE / NEUTROPHIL / NUCLEATED RED BLOOD CELLS / PLATELET COUNT: tissue Blood; for ALANINE AMINOTRANSFERASE / ALBUMIN / ALKALINE PHOSPHATASE / ASPARTATE AMINOTRANSFERASE / BLOOD UREA NITROGEN / CARBON DIOXIDE / CHLORIDE / CHOLESTEROL / CREATINE PHOSPHOKINASE / CREATININE / GLUCOSE / LACTATE DEHYDROGENASE / LIPASE / PHOSPHORUS / POTASSIUM / SODIUM / TOTAL BILIRUBIN / TOTAL PROTEIN / URIC ACID: tissue Plasma
[1] = 0.5 mg/kg, 120 h, dose level Low, time 5 day
[2] = […], 72 h, dose 1.7 mg/Kg, dose level High, time 3 day
[3] = […], 120 h, dose 1.7 mg/Kg, dose level High, time 5 day

CO[C@@]12[C@H](COC(N)=O)C3=C(C(=O)C(C)=C(N)C3=O)N1C[C@@H]1N[C@@H]12 [MITOMYCIN]
ABSOLUTE BASOPHIL [1]: 0 CELLS/uL | ABSOLUTE EOSINOPHIL [1]: 31 CELLS/uL | ABSOLUTE LYMPHOCYTE [1]: 7760.33 CELLS/uL | ABSOLUTE MONOCYTE [1]: 22.67 CELLS/uL | ABSOLUTE SEGMENTED NEUTROPHIL [1]: 286 CELLS/uL | BASOPHIL [1]: 0% | EOSINOPHIL [1]: 0.33% | ERYTHROCYTE COUNT [1]: 6.12 x10E6/uL | HEMATOCRIT [1]: 36.83% | HEMOGLOBIN [1]: 14.33 G/DL | LEUKOCYTE COUNT [1]: 8.1 x10E3/uL | LYMPHOCYTE [1]: 96% | MEAN CORPUSCULAR HEMOGLOBIN [1]: 23.4 pg | MEAN CORPUSCULAR HEMOGLOBIN CONCENTRATION [1]: 38.9 G/DL | MEAN CORPUSCULAR VOLUME [1]: 60.2 fL | MONOCYTE [1]: 0.33% | NEUTROPHIL [1]: 3.33% | NUCLEATED RED BLOOD CELLS [1]: 0.67 /100WBC | PLATELET COUNT [1]: 1302.33 x10E3/uL | ALANINE AMINOTRANSFERASE [1]: 47.33 u/L | ALBUMIN [1]: 4.03 G/DL | ALKALINE PHOSPHATASE [1]: 285.67 u/L | ASPARTATE AMINOTRANSFERASE [1]: 78 u/L | BLOOD UREA NITROGEN [1]: 16.33 mg/dL | CARBON DIOXIDE [1]: 29.33 mmol/L | CHLORIDE [1]: 101.67 MEQ/L | CHOLESTEROL [1]: 67.33 mg/dL | CREATINE PHOSPHOKINASE [1]: 203 u/L | CREATININE [1]: 0.34 mg/dL | GLUCOSE [1]: 154 mg/dL | LACTATE DEHYDROGENASE [1]: 120 u/L | LIPASE [1]: 11 u/L | PHOSPHORUS [1]: 10.5 mg/dL | POTASSIUM [1]: 4.84 MEQ/L | SODIUM [1]: 145.67 MEQ/L | TOTAL BILIRUBIN [1]: 0.13 mg/dL | TOTAL PROTEIN [1]: 5.83 G/DL | URIC ACID [1]: 0.57 mg/dL | ABSOLUTE BASOPHIL [2]: 0 CELLS/uL | ABSOLUTE EOSINOPHIL [2]: 31.67 CELLS/uL | ABSOLUTE LYMPHOCYTE [2]: 7497.33 CELLS/uL | ABSOLUTE MONOCYTE [2]: 0 CELLS/uL | ABSOLUTE SEGMENTED NEUTROPHIL [2]: 1104.33 CELLS/uL | BASOPHIL [2]: 0% | EOSINOPHIL [2]: 0.33% | ERYTHROCYTE COUNT [2]: 5.47 x10E6/uL | HEMATOCRIT [2]: 33.9% | HEMOGLOBIN [2]: 13.43 G/DL | LEUKOCYTE COUNT [2]: 8.63 x10E3/uL | LYMPHOCYTE [2]: 86.67% | MEAN CORPUSCULAR HEMOGLOBIN [2]: 24.6 pg | MEAN CORPUSCULAR HEMOGLOBIN CONCENTRATION [2]: 39.63 G/DL | MEAN CORPUSCULAR VOLUME [2]: 62.07 fL | MONOCYTE [2]: 0% | NEUTROPHIL [2]: 13% | NUCLEATED RED BLOOD CELLS [2]: 0 /100WBC | PLATELET COUNT [2]: 1626.67 x10E3/uL | ALANINE AMINOTRANSFERASE [2]: 35.67 u/L | ALBUMIN [2]: 4.03 G/DL | ALKALINE PHOSPHATASE [2]: 211 u/L | ASPARTATE AMINOTRANSFERASE [2]: 72.33 u/L | BLOOD UREA NITROGEN [2]: 13.33 mg/dL | CARBON DIOXIDE [2]: 29.33 mmol/L | CHLORIDE [2]: 99.33 MEQ/L | CHOLESTEROL [2]: 71.33 mg/dL | CREATINE PHOSPHOKINASE [2]: 245.67 u/L | CREATININE [2]: 0.15 mg/dL | GLUCOSE [2]: 145.33 mg/dL | LACTATE DEHYDROGENASE [2]: 173 u/L | LIPASE [2]: 8 u/L | PHOSPHORUS [2]: 11.53 mg/dL | POTASSIUM [2]: 5.56 MEQ/L | SODIUM [2]: 141.2 MEQ/L | TOTAL BILIRUBIN [2]: 0.1 mg/dL | TOTAL PROTEIN [2]: 5.6 G/DL | URIC ACID [2]: 1.6 mg/dL | ABSOLUTE BASOPHIL [3]: 0 CELLS/uL | ABSOLUTE EOSINOPHIL [3]: 0 CELLS/uL | ABSOLUTE LYMPHOCYTE [3]: 2370 CELLS/uL | ABSOLUTE MONOCYTE [3]: 67 CELLS/uL | ABSOLUTE SEGMENTED NEUTROPHIL [3]: 663 CELLS/uL | BASOPHIL [3]: 0% | EOSINOPHIL [3]: 0% | ERYTHROCYTE COUNT [3]: 6.15 x10E6/uL | HEMATOCRIT [3]: 38.97% | HEMOGLOBIN [3]: 14.9 G/DL | LEUKOCYTE COUNT [3]: 3.1 x10E3/uL | LYMPHOCYTE [3]: 78.33% | MEAN CORPUSCULAR HEMOGLOBIN [3]: 24.23 pg | MEAN CORPUSCULAR HEMOGLOBIN CONCENTRATION [3]: 38.23 G/DL | MEAN CORPUSCULAR VOLUME [3]: 63.33 fL | MONOCYTE [3]: 2% | NEUTROPHIL [3]: 19.67% | NUCLEATED RED BLOOD CELLS [3]: 0 /100WBC | PLATELET COUNT [3]: 1554 x10E3/uL | ALANINE AMINOTRANSFERASE [3]: 21.33 u/L | ALBUMIN [3]: 3.37 G/DL | ALKALINE PHOSPHATASE [3]: 94.67 u/L | ASPARTATE AMINOTRANSFERASE [3]: 57 u/L | BLOOD UREA NITROGEN [3]: 15 mg/dL | CARBON DIOXIDE [3]: 30.67 mmol/L | CHLORIDE [3]: 100.33 MEQ/L | CHOLESTEROL [3]: 84.67 mg/dL | CREATINE PHOSPHOKINASE [3]: 265.67 u/L | CREATININE [3]: 0.26 mg/dL | GLUCOSE [3]: 154 mg/dL | LACTATE DEHYDROGENASE [3]: 136.67 u/L | LIPASE [3]: 10.67 u/L | PHOSPHORUS [3]: 8.73 mg/dL | POTASSIUM [3]: 4.86 MEQ/L | SODIUM [3]: 144.3 MEQ/L | TOTAL BILIRUBIN [3]: 0.1 mg/dL | TOTAL PROTEIN [3]: 5.13 G/DL | URIC ACID [3]: 0.57 mg/dL
